Results from ChEMBL document CHEMBL1201862, “PubChem BioAssay data set” (2004).
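Briefly, cells in 96-well plates were exposed to five compound concentrations for 48 h, and endpoints were estimated by linear interpolation. GI50 is the concentration that inhibits growth by half.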 The source made the active and inactive calls. Rule as the data show it: active = GI50 up to about 1.1 µM and inactive = higher.

Legend:
Test in all cases: inhibition of tumour cell growth, NCI panel, 48 h
A498 = system: A498
A549 = system: A549
BT-549 = system: BT-549
EKVX = system: EKVX
HCT-116 = system: HCT-116
KM12 = system: KM12
MDA-MB-231 = system: MDA-MB-231
MDA-MB-435 = system: MDA-MB-435
NCI-H23 = system: NCI-H23
NCI/ADR-RES = system: NCI/ADR-RES
RXF 393 = system: RXF 393
SK-MEL-28 = system: SK-MEL-28
SN12C = system: SN12C
SW-620 = system: SW-620
TK-10 = system: TK-10
U-251 = system: U-251
UACC-257 = system: UACC-257
UO-31 = system: UO-31
LOX IMVI = system: LOX IMVI
M14 = system: M14

| Structure (SMILES) | GI50 (A498) | GI50 (A549) | GI50 (BT-549) | GI50 (EKVX) | GI50 (HCT-116) | GI50 (KM12) | GI50 (MDA-MB-231) | GI50 (MDA-MB-435) | GI50 (NCI-H23) | GI50 (NCI/ADR-RES) | GI50 (RXF 393) | GI50 (SK-MEL-28) | GI50 (SN12C) | GI50 (SW-620) | GI50 (TK-10) | GI50 (U-251) | GI50 (UACC-257) | GI50 (UO-31) | GI50 (LOX IMVI) | GI50 (M14) |
| --- | --- | --- | --- | --- | --- | --- | --- | --- | --- | --- | --- | --- | --- | --- | --- | --- | --- | --- | --- | --- |
| COC(=O)[C@@H]1C[C@]2(Br)c3ccccc3N(S(=O)(=O)c3ccccc3)[C@@H]2N1C(=O)OC | 59.2 µM (inactive) | > 100 µM (inactive) | > 100 µM (inactive) | 74.1 µM (inactive) | > 100 µM (inactive) | > 100 µM (inactive) | > 100 µM (inactive) | > 100 µM (inactive) | 37.3 µM (inactive) | > 100 µM (inactive) | 23 µM (inactive) | > 100 µM (inactive) | > 100 µM (inactive) | > 100 µM (inactive) | > 100 µM (inactive) | > 100 µM (inactive) | 0.0285 µM (active) | > 100 µM (inactive) | – | – |
| COC(=O)[C@H]1C[C@H]1NC(=O)C(CC(=O)OCc1ccccc1)NC(=O)OCc1ccccc1 (stereo partly drawn) | 61.8 µM (inactive) | 43.8 µM (inactive) | 23.4 µM (inactive) | 44.3 µM (inactive) | 47.6 µM (inactive) | 31.6 µM (inactive) | > 100 µM (inactive) | 35 µM (inactive) | 41.8 µM (inactive) | 28.3 µM (inactive) | – | 53.7 µM (inactive) | > 100 µM (inactive) | > 100 µM (inactive) | 74.6 µM (inactive) | 81.5 µM (inactive) | 86.7 µM (inactive) | – | 83 µM (inactive) | 25.7 µM (inactive) |
| COc1cc(C)cc(C(=O)OCc2ccccc2)c1C1=C(Cl)C(=O)C(Cl)=CC1=O | – | > 10 µM (inactive) | > 10 µM (inactive) | > 10 µM (inactive) | > 10 µM (inactive) | > 10 µM (inactive) | > 10 µM (inactive) | > 10 µM (inactive) | > 10 µM (inactive) | > 10 µM (inactive) | > 10 µM (inactive) | > 10 µM (inactive) | > 10 µM (inactive) | > 7.59 µM (inactive) | > 10 µM (inactive) | > 10 µM (inactive) | > 9.02 µM (inactive) | 3.25 µM (inactive) | > 10 µM (inactive) | > 10 µM (inactive) |
| CC(C)(C)N/N=C(/Cc1nc2c3c(ccc2nc1O)C(=O)c1ccccc1C3=O)C(=O)NC1=C(Cl)C(=O)c2ccccc2C1=O | 88.9 µM (inactive) | 18.3 µM (inactive) | 70.5 µM (inactive) | 61.2 µM (inactive) | 13.9 µM (inactive) | 2.7 µM (inactive) | 1.98 µM (inactive) | 33 µM (inactive) | 42.1 µM (inactive) | 5.77 µM (inactive) | 6.18 µM (inactive) | > 100 µM (inactive) | 17 µM (inactive) | 39.3 µM (inactive) | – | 47.8 µM (inactive) | 57.9 µM (inactive) | 4.91 µM (inactive) | 6.17 µM (inactive) | 15.5 µM (inactive) |
| COc1ccc2oc(=O)c3c(c2c1C)OC(C)(C)C=C3 | > 100 µM (inactive) | > 100 µM (inactive) | > 100 µM (inactive) | > 100 µM (inactive) | > 100 µM (inactive) | > 100 µM (inactive) | > 100 µM (inactive) | > 100 µM (inactive) | > 100 µM (inactive) | > 100 µM (inactive) | – | > 100 µM (inactive) | > 100 µM (inactive) | > 100 µM (inactive) | > 100 µM (inactive) | > 100 µM (inactive) | > 100 µM (inactive) | > 100 µM (inactive) | > 100 µM (inactive) | > 100 µM (inactive) |
| CN(C)CCCN1c2ccccc2CCc2cc([N+](=O)[O-])ccc21 | 12.8 µM (inactive) | 19.9 µM (inactive) | 16.6 µM (inactive) | 20.3 µM (inactive) | 15.7 µM (inactive) | 17.5 µM (inactive) | 14.9 µM (inactive) | 15.8 µM (inactive) | 19 µM (inactive) | 17.2 µM (inactive) | 12.6 µM (inactive) | – | 16.1 µM (inactive) | – | 14.6 µM (inactive) | 17.4 µM (inactive) | 15 µM (inactive) | 14.9 µM (inactive) | 14.4 µM (inactive) | 16.3 µM (inactive) |
| CCOC(=O)c1cnc(-n2[nH]c3c(c2=O)CCCC3)[nH]c1=O | 62.8 µM (inactive) | 63.1 µM (inactive) | 47.1 µM (inactive) | 80.4 µM (inactive) | 36.4 µM (inactive) | 67.5 µM (inactive) | 57.1 µM (inactive) | 47.8 µM (inactive) | 72.8 µM (inactive) | 34.8 µM (inactive) | – | 20.9 µM (inactive) | 52.5 µM (inactive) | 35.2 µM (inactive) | > 100 µM (inactive) | 39.7 µM (inactive) | 32.4 µM (inactive) | 54.6 µM (inactive) | – | 36.4 µM (inactive) |
| O=[N+]([O-])c1ccc(-c2cn(-c3ccc(Cl)cc3)cn2)cc1 | 40.7 µM (inactive) | 27.4 µM (inactive) | 59.2 µM (inactive) | 32.7 µM (inactive) | 27.4 µM (inactive) | > 100 µM (inactive) | 27.2 µM (inactive) | > 100 µM (inactive) | 20.4 µM (inactive) | 36.6 µM (inactive) | – | > 100 µM (inactive) | 41.3 µM (inactive) | > 100 µM (inactive) | 40.3 µM (inactive) | 31.8 µM (inactive) | > 100 µM (inactive) | 45 µM (inactive) | 56.4 µM (inactive) | > 100 µM (inactive) |
| CN1COCc2cc3cc4c(cc3nc21)OCCO4 | > 100 µM (inactive) | > 100 µM (inactive) | 87.3 µM (inactive) | > 100 µM (inactive) | 93.3 µM (inactive) | 41.5 µM (inactive) | > 100 µM (inactive) | > 100 µM (inactive) | – | > 100 µM (inactive) | > 100 µM (inactive) | – | > 100 µM (inactive) | > 100 µM (inactive) | > 100 µM (inactive) | > 100 µM (inactive) | > 100 µM (inactive) | – | > 100 µM (inactive) | > 100 µM (inactive) |
| C=C1C[C@H](O)[C@H]2C(C[Se]c3ccccc3)C(=O)O[C@@H]2[C@H]2[C@H](C)C(O)C[C@@H]12 (stereo partly drawn) | – | 44.2 µM (inactive) | 28.8 µM (inactive) | 33.7 µM (inactive) | 23.1 µM (inactive) | 40 µM (inactive) | 14.8 µM (inactive) | 80.2 µM (inactive) | 15.7 µM (inactive) | 20.2 µM (inactive) | 13.1 µM (inactive) | 76.2 µM (inactive) | 21.8 µM (inactive) | 27.5 µM (inactive) | 56.9 µM (inactive) | 16.4 µM (inactive) | 37.9 µM (inactive) | 22.8 µM (inactive) | 21.2 µM (inactive) | 31.5 µM (inactive) |
| CC1(C)OCC2OC3([C@@H]4OC(C)(C)O[C@H]4CO)OC(C)(C)OC3C2O1 (stereo partly drawn) | > 100 µM (inactive) | > 100 µM (inactive) | > 100 µM (inactive) | > 100 µM (inactive) | > 100 µM (inactive) | > 100 µM (inactive) | > 100 µM (inactive) | > 100 µM (inactive) | > 100 µM (inactive) | > 100 µM (inactive) | > 100 µM (inactive) | > 100 µM (inactive) | > 100 µM (inactive) | > 100 µM (inactive) | – | > 100 µM (inactive) | > 100 µM (inactive) | > 100 µM (inactive) | > 100 µM (inactive) | > 100 µM (inactive) |
| COC(=O)[C@@]1(Cc2ccc(O)cc2)C[C@@H]2Cc3ccccc3N2N1 | 27.9 µM (inactive) | 81.7 µM (inactive) | 45 µM (inactive) | 64.7 µM (inactive) | 65.3 µM (inactive) | > 100 µM (inactive) | 49.1 µM (inactive) | > 100 µM (inactive) | 56.9 µM (inactive) | 31.8 µM (inactive) | – | > 100 µM (inactive) | 71 µM (inactive) | > 100 µM (inactive) | > 100 µM (inactive) | 57.1 µM (inactive) | 23.3 µM (inactive) | 75.7 µM (inactive) | > 100 µM (inactive) | 38.8 µM (inactive) |
| Cc1nc2ccccc2c(=O)n1/N=C/c1ccc(N(C)C)cc1 | > 100 µM (inactive) | > 100 µM (inactive) | 46 µM (inactive) | > 100 µM (inactive) | > 100 µM (inactive) | > 100 µM (inactive) | 32.9 µM (inactive) | > 100 µM (inactive) | 78 µM (inactive) | 86.9 µM (inactive) | – | > 100 µM (inactive) | > 100 µM (inactive) | > 100 µM (inactive) | > 100 µM (inactive) | 45 µM (inactive) | > 100 µM (inactive) | – | > 100 µM (inactive) | > 100 µM (inactive) |
| O=[N+]([O-])c1cc(F)ccc1S(=O)(=O)c1ccccc1 | > 10 µM (inactive) | > 10 µM (inactive) | > 10 µM (inactive) | 5.14 µM (inactive) | > 10 µM (inactive) | > 10 µM (inactive) | > 10 µM (inactive) | > 10 µM (inactive) | > 10 µM (inactive) | > 10 µM (inactive) | > 10 µM (inactive) | > 10 µM (inactive) | > 10 µM (inactive) | > 10 µM (inactive) | > 10 µM (inactive) | > 10 µM (inactive) | > 10 µM (inactive) | – | > 10 µM (inactive) | > 10 µM (inactive) |
| CC(=O)C1C(=O)C(=O)N(c2ccc([N+](=O)[O-])cc2)C1=O (stereo not drawn) | – | 80.4 µM (inactive) | > 100 µM (inactive) | > 100 µM (inactive) | > 100 µM (inactive) | > 100 µM (inactive) | > 100 µM (inactive) | > 100 µM (inactive) | > 100 µM (inactive) | > 100 µM (inactive) | > 100 µM (inactive) | > 100 µM (inactive) | > 100 µM (inactive) | > 100 µM (inactive) | > 100 µM (inactive) | > 100 µM (inactive) | > 100 µM (inactive) | > 100 µM (inactive) | > 100 µM (inactive) | > 100 µM (inactive) |
